Data from ChEMBL document CHEMBL1139920, “Synthesis and biological evaluation of diamine-based histamine H3 antagonists with serotonin reuptake inhibitor activity” (Bioorg Med Chem Lett, 2007).

What was measured:
[1] = target: Sodium-dependent serotonin transporter (Homo sapiens, UniProt P31645); assay: Binding affinity at human SERT
[2] = target: T1, Histamine H3 receptor (Homo sapiens, UniProt Q9Y5N1); assay: Binding affinity at human histamine H3 receptor
[3] = target: Histamine H2 receptor (Homo sapiens) (UniProt P25021); assay: Binding affinity at histamine H2 receptor at 1 uM
[4] = target: T2, Sodium-dependent noradrenaline transporter (Homo sapiens, UniProt P23975); assay: Binding affinity at noradrenaline transporter at 1 uM
[5] = target: T2, Sodium-dependent noradrenaline transporter; assay: Binding affinity at human noradrenaline transporter
[6] = target: T1, Histamine H3 receptor; assay: Antagonist activity at human histamine H3 receptor; format: functional; settings: read-out: pA2 (converted)
[7] = target: Sodium-dependent serotonin transporter (Rattus norvegicus, UniProt P31652); assay: Binding affinity at rat SERT
Chain of Sodium-dependent serotonin transporter (Rattus norvegicus, UniProt P31652) (P31652 whole entry): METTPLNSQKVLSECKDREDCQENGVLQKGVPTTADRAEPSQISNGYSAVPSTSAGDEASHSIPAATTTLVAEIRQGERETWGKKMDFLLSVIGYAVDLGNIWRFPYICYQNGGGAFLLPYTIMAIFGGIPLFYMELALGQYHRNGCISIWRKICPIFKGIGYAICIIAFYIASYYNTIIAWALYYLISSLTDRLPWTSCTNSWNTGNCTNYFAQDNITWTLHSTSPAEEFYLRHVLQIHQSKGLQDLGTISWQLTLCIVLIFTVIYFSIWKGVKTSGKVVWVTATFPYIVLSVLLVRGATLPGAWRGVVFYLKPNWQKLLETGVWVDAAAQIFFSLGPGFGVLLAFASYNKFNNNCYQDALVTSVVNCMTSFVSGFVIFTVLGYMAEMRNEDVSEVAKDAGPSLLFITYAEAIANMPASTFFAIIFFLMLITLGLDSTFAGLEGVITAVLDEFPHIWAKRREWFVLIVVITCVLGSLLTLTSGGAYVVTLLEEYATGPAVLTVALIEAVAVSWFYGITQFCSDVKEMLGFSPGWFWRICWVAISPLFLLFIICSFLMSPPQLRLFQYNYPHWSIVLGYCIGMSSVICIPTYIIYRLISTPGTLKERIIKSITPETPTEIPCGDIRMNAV

T1 sequence (Q9Y5N1 whole entry): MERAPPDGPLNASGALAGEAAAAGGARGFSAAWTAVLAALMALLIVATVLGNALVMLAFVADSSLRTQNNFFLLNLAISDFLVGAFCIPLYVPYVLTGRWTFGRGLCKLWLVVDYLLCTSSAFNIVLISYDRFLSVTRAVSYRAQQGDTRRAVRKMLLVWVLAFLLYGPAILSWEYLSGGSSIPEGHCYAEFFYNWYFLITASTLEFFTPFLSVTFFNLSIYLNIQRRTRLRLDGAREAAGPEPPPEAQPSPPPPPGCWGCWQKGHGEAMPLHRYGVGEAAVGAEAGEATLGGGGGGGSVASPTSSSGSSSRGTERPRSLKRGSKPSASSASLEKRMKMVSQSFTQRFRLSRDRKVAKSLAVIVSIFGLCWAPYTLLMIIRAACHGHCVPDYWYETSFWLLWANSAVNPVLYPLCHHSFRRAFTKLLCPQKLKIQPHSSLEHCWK
Chain of Sodium-dependent serotonin transporter (Homo sapiens, UniProt P31645) (P31645 whole entry): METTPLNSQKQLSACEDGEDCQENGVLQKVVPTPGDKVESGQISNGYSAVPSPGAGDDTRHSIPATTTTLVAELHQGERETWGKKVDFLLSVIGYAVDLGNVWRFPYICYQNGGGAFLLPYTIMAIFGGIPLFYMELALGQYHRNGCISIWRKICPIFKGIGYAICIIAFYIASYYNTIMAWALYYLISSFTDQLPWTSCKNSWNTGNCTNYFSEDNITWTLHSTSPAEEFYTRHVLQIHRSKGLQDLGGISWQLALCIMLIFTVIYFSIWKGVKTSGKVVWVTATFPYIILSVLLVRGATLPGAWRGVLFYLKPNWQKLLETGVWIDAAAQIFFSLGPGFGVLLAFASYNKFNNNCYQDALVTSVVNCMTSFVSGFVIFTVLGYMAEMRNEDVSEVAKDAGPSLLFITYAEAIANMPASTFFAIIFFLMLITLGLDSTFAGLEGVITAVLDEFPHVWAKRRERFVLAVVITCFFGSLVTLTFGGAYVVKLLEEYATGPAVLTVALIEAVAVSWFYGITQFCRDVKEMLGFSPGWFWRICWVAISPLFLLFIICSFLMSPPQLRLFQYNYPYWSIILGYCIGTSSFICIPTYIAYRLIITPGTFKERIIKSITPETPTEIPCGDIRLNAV
T2 sequence (P23975 whole entry): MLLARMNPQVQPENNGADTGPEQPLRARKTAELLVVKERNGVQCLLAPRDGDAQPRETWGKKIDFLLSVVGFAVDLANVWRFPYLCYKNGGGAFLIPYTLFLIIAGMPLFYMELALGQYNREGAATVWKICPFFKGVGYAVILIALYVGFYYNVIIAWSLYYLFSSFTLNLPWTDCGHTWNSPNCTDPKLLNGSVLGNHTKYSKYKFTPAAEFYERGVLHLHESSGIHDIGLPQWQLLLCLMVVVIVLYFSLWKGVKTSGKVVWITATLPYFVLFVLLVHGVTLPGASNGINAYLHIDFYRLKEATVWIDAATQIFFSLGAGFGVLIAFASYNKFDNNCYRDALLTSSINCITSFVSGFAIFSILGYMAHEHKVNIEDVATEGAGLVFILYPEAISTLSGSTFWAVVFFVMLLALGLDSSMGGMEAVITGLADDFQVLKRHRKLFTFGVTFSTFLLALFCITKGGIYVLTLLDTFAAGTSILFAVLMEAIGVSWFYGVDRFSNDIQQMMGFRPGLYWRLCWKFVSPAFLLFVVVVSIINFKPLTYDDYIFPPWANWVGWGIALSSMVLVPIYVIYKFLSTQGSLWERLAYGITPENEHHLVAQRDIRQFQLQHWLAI
Chain of Histamine H2 receptor (Homo sapiens) (P25021 whole entry): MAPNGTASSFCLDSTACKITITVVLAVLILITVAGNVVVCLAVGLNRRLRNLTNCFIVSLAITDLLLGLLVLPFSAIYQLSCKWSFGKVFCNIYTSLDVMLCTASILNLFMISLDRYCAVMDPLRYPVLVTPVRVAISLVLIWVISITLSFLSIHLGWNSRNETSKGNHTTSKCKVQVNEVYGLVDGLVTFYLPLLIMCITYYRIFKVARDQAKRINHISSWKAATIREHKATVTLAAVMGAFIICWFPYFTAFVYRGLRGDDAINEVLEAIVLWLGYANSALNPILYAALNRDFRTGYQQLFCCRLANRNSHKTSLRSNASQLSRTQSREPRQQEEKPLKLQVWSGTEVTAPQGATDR

Which results are given for `CN(C)CCC(Oc1cccc(Cl)c1)c1ccc(OCCCN2CCCCC2)cc1` (stereo in doubt; 37)?
Ki [1]: 2.7 nM; Ki [2]: 0.9 nM

How did the Ki [2] turn out when `Cc1ccc(OC(CCN(C)C)c2ccc(OCCCN3CCCCC3)cc2)cc1` (stereo not given) was run?
The Ki was 0.7 nM.

For `CN(C)CCC(Oc1ccc(Br)cc1)c1ccc(OCCCN2CCCCC2)cc1` (stereo not given), which Ki [1] is on record?
The Ki was 9 nM.

How did the Ki [2] turn out when `CN(C)CCC(Oc1ccccc1)c1ccc(OCCCN2CCCCC2)cc1` (stereo not given) was run?
The Ki was 0.6 nM.

And the Activity [3]?
The Activity was 66%.

And the Activity [4]?
The Activity was 73%.

And the Ki [5]?
The Ki was 201 nM.

What about the Kb [6] of the same compound?
The Kb was 0.501 nM.

Which Ki [2] does the source give for `COc1ccc(OC(CCN(C)C)c2ccc(OCCCN3CCCCC3)cc2)cc1` (stereo not given) here?
The Ki was 1 nM.

How did the Ki [7] turn out when `CN(C)CCC(Oc1ccc(Cl)c(Cl)c1)c1ccc(OCCCN2CCCCC2)cc1` (stereo in doubt; 39) was run?
The Ki was 7 nM.

With `CN(C)CCC(Oc1ccc([N+](=O)[O-])cc1)c1ccc(OCCCN2CCCCC2)cc1` (stereo not given) as the compound, how does the Ki [7] read?
The Ki was 3.7 nM.

What about the Ki [1] of the same compound?
The Ki was 8.7 nM.

How did the Ki [7] turn out when `COc1cccc(OC(CCN(C)C)c2ccc(OCCCN3CCCCC3)cc2)c1` (stereo not given) was run?
Its Ki is 2 nM.

How did the Ki [7] turn out when `CN(C)CCC(Oc1ccc(C#N)cc1)c1ccc(OCCCN2CCCCC2)cc1` (stereo not given) was run?
Its Ki is 7.7 nM.

How did the Ki [2] turn out when `CC(C)N1CCN(C(=O)c2ccc(C(CCN(C)C)Oc3ccc(C(F)(F)F)cc3)cc2)CC1` (stereo not given) was run?
The Ki was 2.3 nM.

With `CN(C)CCC(Oc1ccc(Cl)cc1)c1ccc(OCCCN2CCCCC2)cc1` (stereo not given) as the compound, how does the Ki [7] read?
The Ki was 2.3 nM.

How did the Ki [7] turn out when `CN(C)CCC(Oc1cccc(Br)c1)c1ccc(OCCCN2CCCCC2)cc1` (stereo not given) was run?
Its Ki is 2.3 nM.

For `CN(C)CCC(Oc1ccc(C(F)(F)F)cc1)c1ccccc1` (stereo not given), which Ki [7] is on record?
The Ki was 7.7 nM.

What about the Ki [1] of the same compound?
The Ki was 8.3 nM.

What about the Ki [2] of the same compound?
Its Ki is 6630 nM.

With `CN(C)CCC(Oc1ccc(C(F)(F)F)cc1)c1ccc(OCCCN2CCCCC2)cc1` (stereo not given) as the compound, how does the Ki [7] read?
The Ki was 10 nM.

And the Ki [2]?
The Ki was 2.7 nM.

With `CN(C)CCC(Oc1ccc(Cl)c(Cl)c1)c1ccc(OCCCN2CCCCC2)cc1` (stereo in doubt; 40) as the compound, how does the Ki [7] read?
Its Ki is 7.7 nM.

Which Ki [7] does the source give for `CC(C)N1CCN(C(=O)c2ccc(C(CCN(C)C)Oc3ccccc3)cc2)CC1` (stereo not given) here?
Its Ki is 63 nM.

And the Ki [2]?
The Ki was 0.8 nM.

For `CC(C)N1CCC(Oc2ccc(C(CCN(C)C)Oc3ccccc3)cc2)CC1` (stereo not given), which Ki [7] is on record?
Its Ki is 39 nM.

Which Ki [1] does the source give for `CN(C)CCC(Oc1cccc(OCCCN2CCCCC2)c1)c1ccccc1` (stereo not given) here?
Its Ki is 1480 nM.

What does the source list for `CN(C)CCC(Oc1cccc(Cl)c1)c1ccc(OCCCN2CCCCC2)cc1` (stereo in doubt; 38)?
Ki [1]: 21 nM; Ki [2]: 0.9 nM

How did the Ki [2] turn out when `CN(C)CCC(Oc1ccccc1)c1cccc(OCCCN2CCCCC2)c1` (stereo not given) was run?
Its Ki is 3.3 nM.

Which results are given for `CN(C)CCC(Oc1ccc(C(F)(F)F)cc1)c1ccc(C#CCCN2CCCCC2)cc1` (stereo not given)?
Ki [7]: 33 nM; Ki [2]: 5 nM

With `CN(C)CCC(Oc1ccccc1)c1ccc(C#CCCN2CCCCC2)cc1` (stereo not given) as the compound, how does the Ki [7] read?
The Ki was 6 nM.

What about the Ki [2] of the same compound?
The Ki was 1.3 nM.
